Data on 21 compounds can be found in patent US20200367543A1, “SWEETENER AND FLAVOR COMPOSITIONS, METHODS OF MAKING AND METHODS OF USE THEREOF” (EPC Natural Products Co., Ltd., priority 2018, published 2020).

Read-outs that look alike come from different tables or passages of the source. Bounds are passed on as bounds.

A short description of data set [1]: Sensory evaluation of GSGs and SGs, thaumatin, NHDC and combinations (Ex. 255). The conditions noted are these: combinations of EPCalin and NHDC dissolved in water. On the procedure: 4.5 ppm Thaumatin (equivalent to 10 ppm EPCalin) was dissolved in water. Increasing amounts of NHDC (1-5 ppm) were added to the solution and the sensory properties were evaluated.
50 ppm (GSGs and SGs) were dissolved in water. Increasing amounts of NHDC (1-5 ppm) were added to the solution and the sensory properties were evaluated.
50 ppm (GSGs and SGs) and 4.5 ppm Thaumatin (equivalent to 10 ppm EPCalin) were dissolved in water. Increasing amounts of NHDC (1-5 ppm) were added to the solution and the sensory properties were evaluated.

The conditions of data set [2]: compared to sucrose; cited from earlier work.
The conditions of data set [3]: cited from earlier work; for times sweeter than sucrose: sweetness depends on the tested concentration compared with sucrose; for natural sweetness, times of that of sugar: constituents of monk fruit juice or extract; for Sweetness by weight: compared to sucrose.
Data set [4] can be described thus: Kinetics of reaction in dependence of pH-conditions (degradation of Phe and Reb-A, Gluc, Xyl, Suc) by HPLC/MS. As to the method:
Quantitative evaluation was performed using external standardization.
Kinetics of Reaction in Dependence of pH-Conditions

Data set [5] can be described thus: DPPH radical-scavenging activity (Ex. 65). The conditions noted are these: 10 mM, 100° C., 0-5.0 h, diluted 1:10. On the procedure:
1 mg 1,1-Diphenyl-2-picrylhydrazyl radical (DPPH)/ml ethanol, dilution to assay concentration were prepared in ethanol (40 μg/mL); Calibration samples were prepared with Ascorbic acid in a concentration of 0-10 μg/mL; as a negative control sample, water was used.
Samples in aqueous solution were used as such or diluted with water.
A 0.1 ml sample (or calibration standard) was mixed with 3.9 ml solution of DPPH
([…]) and reacted while protected from light at room temperature for 30 min. Absorbance was determined at 517 nm against ethanol.
10 mM of amino acid and/or 10 mM sugar were dissolved in 10 ml 0.1 mM KH2PO4-buffer, pH=7.8.
The samples were kept at 100° C. in sealed glass vials (Pyrex 15 ml with screw caps) for 0 (before reaction), 2.5 or 5.0 hours. Thereafter the samples were transferred to an ice water bath and cooled down to room temperature. These samples were diluted 1:10 and used for the test assay for anti-oxidant potential.
On the technique in general: Loss of DPPH colour is used to gauge radical scavenging.

Data set [6] in a line: Assay to test reducing power, active iron-III reduction (Ex. 64). The conditions noted are these: 10 mM, 100° C., 0-5.0 h, diluted 1:10.

For `COc1ccc(CCC(=O)c2c(O)cc(O[C@@H]3O[C@H](CO)[C@@H](O)[C@H](O)[C@H]3O[C@@H]3O[C@@H](C)[C@H](O)[C@@H](O)[C@H]3O)cc2O)cc1O` [10 ppm NHDC], in data set [1], the Sensory evaluation result is “Sweet, steep onset of sweetness, no lingering”.

With `OC[C@@H](O)[C@@H](O)CO` [Erythritol], the Energy density in data set [2] is reported as 0.05. For `OCC(O)CO` [Glycerol], the Energy density in data set [2] was 1.075. Consider `CC1(C)[C@@H](O[C@H]2O[C@H](C(=O)O)[C@@H](O)[C@H](O)[C@H]2O[C@@H]2O[C@H](C(=O)O)[C@@H](O)[C@H](O)[C@H]2O)CC[C@]2(C)[C@H]3C(=O)C=C4[C@@H]5C[C@@](C)(C(=O)O)CC[C@]5(C)CC[C@@]4(C)[C@]3(C)CC[C@@H]12` [Glycyrrhizin], for which the “times sweeter than sucrose” value in data set [3] was 30 to 50 times. For the compound `OC[C@@H](O)[C@@H](O[C@@H]1O[C@H](CO)[C@H](O)[C@H](O)[C@H]1O)[C@H](O)[C@@H](O)CO` [Lactitol], the Energy density in data set [2] is 0.5. As for `O=C(O)[C@H](Cc1ccccc1)NCC(=O)[C@@H](O)[C@H](O)[C@H](O)CO` [MRI (Phe-Glu)], the “% formation from degraded Phe” value was under 0.10% in data set [4] (reaction of Phe and Suc, pH = 5.5, n.d. = not detected); 0.54% in data set [4] (reaction of Phe and Suc, pH = 7.0, n.d. = not detected); 0.84% in data set [4] (reaction of Phe and Suc, pH = 8.5, n.d. = not detected). For `C=C1CC23CC[C@H]4[C@@](C)(CCC[C@@]4(C)C(=O)OC4O[C@H](C(=O)N[C@H](Cc5ccccc5)C(=O)O)[C@@H](O)[C@H](O)[C@H]4O)[C@@H]2CC(O[C@@H]2O[C@H](CO)[C@@H](O)C(O[C@@H]4O[C@H](CO)[C@@H](O)[C@H](O)[C@H]4O)[C@H]2O[C@@H]2O[C@H](CO)[C@@H](O)[C@H](O)[C@H]2O)C1C3` (stereo partly drawn) [MRI (Phe-Reb-A)], the “% formation from degraded Phe” value in data set [4] (reaction of Phe and Reb-A, pH = 5.5, MRI (Phe-Reb-A): all possible isomers included) was 10.4%; in data set [4] (reaction of Phe and Reb-A, pH = 7.0, MRI (Phe-Reb-A): all possible isomers included), 11.3%; in data set [4] (reaction of Phe and Reb-A, pH = 8.5, MRI (Phe-Reb-A): all possible isomers included) it was 14.7%. Take `OC[C@@H](O)[C@@H](O[C@H]1O[C@H](CO)[C@@H](O)[C@H](O)[C@H]1O)[C@H](O)[C@@H](O)CO` [Maltitol]: the Energy density in data set [2] is given as 0.525. Consider `OC[C@@H](O)[C@@H](O)[C@H](O)[C@H](O)CO` [Mannitol], for which, in data set [3], the “natural sweetness, times of that of sugar” value (from here on “natural sweetness, times”) is recorded as 0.55-0.65 times. The Energy density in data set [2] was 0.4. `COc1ccc(CCC(=O)c2c(O)cc(O[C@@H]3O[C@H](CO)[C@@H](O)[C@H](O)[C@H]3O[C@@H]3O[C@@H](C)[C@H](O)[C@@H](O)[C@H]3O)cc2O)cc1O` [NHDC, Neohesperidin dihydrochalcone]: the “times sweeter than sugar” value in data set [3] (at threshold concentrations) is 1500-1800 times; in data set [3] (weight-for-weight) it was “about 340 times”. Take `C=C1C[C@@]23CC[C@H]4[C@@](C)(CCC[C@@]4(C)C(=O)O[C@@H]4O[C@H](CO)[C@@H](O)[C@H](O)[C@H]4O)[C@@H]2CC[C@]1(O[C@@H]1O[C@H](CO)[C@@H](O)[C@H](O[C@@H]2O[C@H](CO)[C@@H](O)[C@H](O)[C@H]2O)[C@H]1O[C@@H]1O[C@H](CO)[C@@H](O)[C@H](O)[C@H]1O)C3` [Reb-A, Rebaudioside A]: the “anti-oxidant properties (radical scavenging)” value in data set [5] is “substantial anti-oxidant properties”. For the same compound, in data set [6], the “anti-oxidant properties (active iron-III reduction)” value is “substantial anti-oxidant properties”.

For `OC[C@@H](O)[C@@H](O)[C@H](O)[C@@H](O)CO` [Sorbitol], the Energy density in data set [2] is 0.65. `O=C(CO)[C@@H](O)[C@@H](O)[C@H](O)CO` [Tagatose]: the Energy density in data set [2] is given as 0.38. Turning to `C[C@H](CC[C@@H](O[C@@H]1O[C@H](CO)[C@@H](O)[C@H](O)[C@H]1O[C@@H]1O[C@H](CO)[C@@H](O)[C@H](O)[C@H]1O)C(C)(C)O)[C@H]1CC[C@@]2(C)[C@H]3CC=C4[C@@H](CC[C@H](O[C@@H]5O[C@H](CO[C@@H]6O[C@H](CO)[C@@H](O)[C@H](O)[C@H]6O)[C@@H](O)[C@H](O)[C@H]5O)C4(C)C)[C@]3(C)[C@H](O)C[C@]12C` [mogroside IV], the “natural sweetness, times” value in data set [3] is listed as 126 times. With `C[C@H](CC[C@@H](O[C@@H]1O[C@H](CO[C@@H]2O[C@H](CO)[C@@H](O)[C@H](O)[C@H]2O)[C@@H](O)[C@H](O)[C@H]1O[C@@H]1O[C@H](CO)[C@@H](O)[C@H](O)[C@H]1O)C(C)(C)O)[C@H]1CC[C@@]2(C)[C@@H]3CC=C4[C@@H](CC[C@H](O[C@@H]5O[C@H](CO[C@@H]6O[C@H](CO)[C@@H](O)[C@H](O)[C@H]6O)[C@@H](O)[C@H](O)[C@H]5O)C4(C)C)[C@]3(C)[C@H](O)C[C@]12C` [mogroside V], the “natural sweetness, times” value in data set [3] was 256-344 times.

In the case of `O=S(=O)([O-])NC1CCCCC1.[Na+]` [sodium cyclamate], the “times sweeter than sucrose” value in data set [3] is “about 30 times”. As to `OC[C@H]1O[C@H](O[C@]2(CCl)O[C@H](CCl)[C@@H](O)[C@@H]2O)[C@H](O)[C@@H](O)[C@H]1Cl` [sucralose], the “times sweeter than sucrose” value in data set [3] was “about 600 times”.

Regarding Fructo-oligosaccharide, the Sweetness by weight in data set [3] is 0.3-0.5. Take Isomalt: the Energy density in data set [2] is given as 0.5. Take Isomalto-oligosaccharide: the Sweetness by weight in data set [3] was 0.5. For rebaudioside B [Reb B], the “% formation from degraded Reb-A” value in data set [4] (reaction of Phe and Reb-A, pH = 5.5) is reported as 23.1%; in data set [4] (reaction of Phe and Reb-A, pH = 7.0), 22.7%; in data set [4] (reaction of Phe and Reb-A, pH = 8.5), 19.1%.
